Columns and labels:
[1] = test system: Alopecurus myosuroides (ALOMY); assay: Example A post-emergence herbicidal activity, glasshouse pot test; type: in vivo; conditions: 360 h, rate 500 g/ha, evaluated 15 days after spraying, read-out: herbicidal damage ALOMY (100=total damage to plant; 0=no damage to plant)
Procedure: (§1) Seeds of a variety of test species were sown in standard soil in pots. After cultivation for one day (pre-emergence) or after 10 days cultivation (post-emergence) under controlled conditions in a glasshouse, the plants were sprayed with an aqueous spray solution derived from the formulation of the technical active ingredient in 0.6 ml acetone and 45 ml formulation solution containing 10.6% Emulsogen EL (Registry number 61791-12-6), 42.2% N-methylpyrrolidone, 42.2% dipropylene glycol monomethyl ether (Registry number 34590-94-8) and 0.2% X-77 (Registry number 11097-66-8). The test plants were then grown in a greenhouse under optimum conditions until, 15 days later for post-emergence and 20 days for pre-emergence, the test was evaluated (100=total damage to plant; 0=no damage to plant). Alopecurus myosuroides (ALOMY), Avena fatua (AVEFA), Lolium perenne (LOLPE), Setaria faberi (SETFA), Digitaria sanguinalis (DIGSA), Echinochloa crus-galli (ECHCG) Post Emergency Activity

Setaria faberi (SETFA) [2] = assay: as above; type: in vivo; conditions: 360 h, rate 500 g/ha, evaluated 15 days after spraying, read-out: herbicidal damage SETFA (100=total damage to plant; 0=no damage to plant)
Procedure: as §1

Avena fatua (AVEFA) [3] = assay: as above; type: in vivo; conditions: 360 h, rate 500 g/ha, evaluated 15 days after spraying, read-out: herbicidal damage AVEFA (100=total damage to plant; 0=no damage to plant)
Procedure: as §1

[4] = test system: Digitaria sanguinalis (DIGSA); assay: as above; type: in vivo; conditions: 360 h, rate 500 g/ha, evaluated 15 days after spraying, read-out: herbicidal damage DIGSA (100=total damage to plant; 0=no damage to plant)
Procedure: as §1

[5] = test system: Echinochloa crus-galli (ECHCG); assay: as above; type: in vivo; conditions: 360 h, rate 500 g/ha, evaluated 15 days after spraying, read-out: herbicidal damage ECHCG (100=total damage to plant; 0=no damage to plant)
Procedure: as §1

Lolium perenne (LOLPE) [6] = assay: as above; type: in vivo; conditions: 360 h, rate 500 g/ha, evaluated 15 days after spraying, read-out: herbicidal damage LOLPE (100=total damage to plant; 0=no damage to plant)
Procedure: as §1

[7] = test system: Alopecurus myosuroides (ALOMY); assay: Example A pre-emergence herbicidal activity, glasshouse pot test; type: in vivo; conditions: 480 h, rate 500 g/ha, evaluated 20 days later, 100=total damage to plant, 0=no damage to plant
Procedure: as §1, with “Pre-Emergence” for “Post Emergency”

Setaria faberi (SETFA) [8] = assay: as above; type: in vivo; conditions: 480 h, rate 500 g/ha, evaluated 20 days later, 100=total damage to plant, 0=no damage to plant
Procedure: as §1, with “Pre-Emergence” for “Post Emergency”

Avena fatua (AVEFA) [9] = assay: as above; type: in vivo; conditions: 480 h, rate 500 g/ha, evaluated 20 days later, 100=total damage to plant, 0=no damage to plant
Procedure: as §1, with “Pre-Emergence” for “Post Emergency”

[10] = test system: Digitaria sanguinalis (DIGSA); assay: as above; type: in vivo; conditions: 480 h, rate 500 g/ha, evaluated 20 days later, 100=total damage to plant, 0=no damage to plant
Procedure: as §1, with “Pre-Emergence” for “Post Emergency”

[11] = test system: Echinochloa crus-galli (ECHCG); assay: as above; type: in vivo; conditions: 480 h, rate 500 g/ha, evaluated 20 days later, 100=total damage to plant, 0=no damage to plant
Procedure: as §1, with “Pre-Emergence” for “Post Emergency”

Lolium perenne (LOLPE) [12] = assay: as above; type: in vivo; conditions: 480 h, rate 500 g/ha, evaluated 20 days later, 100=total damage to plant, 0=no damage to plant
Procedure: as §1, with “Pre-Emergence” for “Post Emergency”

| melting point | SMILES | pest or weed control at 500 g/ha [1] | pest or weed control at 500 g/ha (Setaria faberi (SETFA) [2]) | pest or weed control at 500 g/ha (Avena fatua (AVEFA) [3]) | pest or weed control at 500 g/ha [4] | pest or weed control at 500 g/ha [5] | pest or weed control at 500 g/ha (Lolium perenne (LOLPE) [6]) | pest or weed control at 500 g/ha [7] | pest or weed control at 500 g/ha (Setaria faberi (SETFA) [8]) | pest or weed control at 500 g/ha (Avena fatua (AVEFA) [9]) | pest or weed control at 500 g/ha [10] | pest or weed control at 500 g/ha [11] | pest or weed control at 500 g/ha (Lolium perenne (LOLPE) [12]) |
| --- | --- | --- | --- | --- | --- | --- | --- | --- | --- | --- | --- | --- | --- |
| 62 to 64 °C | Cc1cc(C)c(C2=C(O)CC(CC3CCOC3)CC2=O)c(C)c1 (centres unmarked) [Compound A-1, 2-(2,4,6-trimethylphenyl)-5-(tetrahydrofuran-3-ylmethyl)cyclohexane-1,3-dione] | 70% | 100% | 80% | 100% | 90% | 70% | 70% | 90% | 40% | 100% | 50% | 80% |
| 108 to 110 °C | Cc1cc(C)c(C2=C(OC(=O)C(C)(C)C)CC(CC3CCOC3)CC2=O)c(C)c1 (centres unmarked) [Compound B-1, 2,2-dimethylpropionic acid 3-oxo-5-(tetrahydrofuran-3-ylmethyl)-2-(2,4,6-trimethylphenyl)cyclohex-1-enyl Ester] | 50% | 80% | 0% | 90% | 70% | 60% | 90% | 80% | 50% | 100% | 100% | 90% |

From patent publication US8735322B2, “Herbicides” (Syngenta Limited, priority 2008, dated 2014)
